Experiment: solvent given as SMILES

CC1=[N+]2C(=C(c3cccs3)c3ccc(C)n3[B-]2(F)F)C=C1c1cc2n(c1)[B-](F)(F)[N+]1=CC=CC1=C2c1c(C)cc(C)cc1C
fluorescence lifetime (in C1CCCCC1): 2.67 ns
fluorescence lifetime (in CCOC(C)=O): 0.92 ns

CCN(CC)c1ccc2c(-c3ccccc3C(=O)O)c3c([o+]c2c1)/C(=C/c1ccc(N2CCCC2)s1)CCC3
fluorescence lifetime (in ClCCl): 0.16 ns

N#Cc1cccc2[nH]ccc12
fluorescence lifetime (in C1CCOC1): 5.3 ns
fluorescence lifetime (in C1COCCO1): 5.3 ns
fluorescence lifetime (in CC#N): 5.4 ns
fluorescence lifetime (in CC(C)O): 5.7 ns
fluorescence lifetime (in CCO): 5.7 ns
fluorescence lifetime (in CO): 5.8 ns
fluorescence lifetime (in CS(C)=O): 7.4 ns
fluorescence lifetime (in NC=O): 7.8 ns
fluorescence lifetime (in O): 9.1 ns
fluorescence lifetime (in OCC(F)(F)F): 6.3 ns
fluorescence lifetime (in [2H]O[2H]): 9.3 ns

CNc1cccc2c1C(=O)c1ccccc1C2=O
fluorescence lifetime (in C1CCC2CCCCC2C1): 0.446 ns
fluorescence lifetime (in C1CCCCC1): 0.443 ns
fluorescence lifetime (in CC1CCCCC1): 0.445 ns
fluorescence lifetime (in CC#N): 0.204 ns
fluorescence lifetime (in CCC(C)CC): 0.444 ns
fluorescence lifetime (in CCCCCC): 0.451 ns
fluorescence lifetime (in CCOC(C)=O): 0.253 ns

CC(C)(C)NC(=O)c1c([Si](C)(C)C)cc2ccc3cccc4ccc1c2c34
fluorescence lifetime (in ClC(Cl)Cl): 6.53 ns

c1ccc(-c2nc(-c3ccc(N4c5ccccc5C(c5ccccc5)(c5ccccc5)c5ccccc54)cc3)cc(-c3ccc(N4c5ccccc5C(c5ccccc5)(c5ccccc5)c5ccccc54)cc3)n2)cc1
fluorescence lifetime (in O=P(c1ccccc1)(c1ccccc1)c1ccc2oc3ccc(P(=O)(c4ccccc4)c4ccccc4)cc3c2c1): 11 ns

C(=C\c1nc2ccccc2s1)/c1ccccc1
fluorescence lifetime (in C1CCCCC1): 0.17 ns

CCCCN1C(=O)c2cc(Br)c3c4c(Br)c(Br)c5c6c(cc(Br)c(c7c(Br)c(Br)c(c2c37)C1=O)c64)C(=O)N(CCCC)C5=O
fluorescence lifetime (in ClC(Cl)Cl): 1.1 ns

N#Cc1nc(-c2ccc(N3c4ccccc4Oc4ccccc43)cc2)c(-c2ccc(N3c4ccccc4Oc4ccccc43)cc2)nc1C#N
fluorescence lifetime (in c1cc(-c2cccc(-n3c4ccccc4c4ccccc43)c2)cc(-n2c3ccccc3c3ccccc32)c1): 21 ns

COc1ccc(N(c2ccc(OC)cc2)c2cc3ccc4cc(B(c5c(C)cc(C)cc5C)c5c(C)cc(C)cc5C)cc5ccc(c2)c3c45)cc1
fluorescence lifetime (in C1CCOC1): 6.1 ns
fluorescence lifetime (in CC(C)=O): 3.2 ns
fluorescence lifetime (in CCCCCC): 7.7 ns
fluorescence lifetime (in Cc1ccccc1): 8.7 ns
fluorescence lifetime (in ClC(Cl)Cl): 6.5 ns
fluorescence lifetime (in ClCCl): 6.5 ns

F[B-]1(F)OC(c2ccc(C(F)(F)F)cc2)=Cc2cc(Cl)nc[n+]21
fluorescence lifetime (in C1CCOC1): 0.13 ns
fluorescence lifetime (in Cc1ccccc1): 0.21 ns

CCn1c2ccccc2c2cc(C#Cc3cc(C#Cc4ccc5c(c4)c4ccccc4n5CC)nc(N4CCCCC4)n3)ccc21
fluorescence lifetime (in C1CCOC1): 2.9 ns

Cc1ccccc1
fluorescence lifetime (in C1CCCCC1): 50 ns

F[B-]1(F)n2c(c3c(c2-c2ccccc2)C2C=CC3CC2)C(c2ccccc2)=C2C3=C(C(c4ccccc4)=[N+]21)C1C=CC3CC1 (stereo not given)
fluorescence lifetime (in ClCCl): 6.1 ns

CCN(CC)c1ccc2c(-c3ccccc3C(=O)O)c3c([o+]c2c1)/C(=C/c1nc(-c2ccccc2)n2ccccc12)CCC3
fluorescence lifetime (in ClCCl): 2.97 ns

CCOC(=O)c1c(CSc2ccccc2)n(C)c2cc(Br)c(O)c(CN(C)C)c12
fluorescence lifetime (in O): 3 ns

COC(=O)c1ccc(-c2ccc3c(c2)C(=O)c2cc(-c4ccc(C(=O)OC)cc4)ccc2-3)cc1
fluorescence lifetime (in C1CCOC1): 2.3 ns

O=C(c1ccc(N2c3ccccc3Oc3ccccc32)cc1)c1ccc(N2c3ccccc3Oc3ccccc32)cc1
fluorescence lifetime (in c1cc(-n2c3ccccc3c3ccccc32)cc(-n2c3ccccc3c3ccccc32)c1): 23 ns

Cc1c(C)c(N2c3ccccc3Oc3ccccc32)c(C)c(C)c1B(c1c(C)c(C)c(N2c3ccccc3Oc3ccccc32)c(C)c1C)c1c(C)c(C)c(N2c3ccccc3Oc3ccccc32)c(C)c1C
fluorescence lifetime (in CC(C)(C)c1ccc(-n2c3ccc([Si](c4ccccc4)(c4ccccc4)c4ccccc4)cc3c3cc([Si](c4ccccc4)(c4ccccc4)c4ccccc4)ccc32)cc1): 1.3 ns

c1ccc(-c2cnc3nn4ccccc4c3c2)cc1
fluorescence lifetime (in C1CCOC1): 4.7 ns

N=c1oc2cccc3c4c(-c5ccccc5)oc5cccc(c(c1-c1ccccc1)c23)c54
fluorescence lifetime (in ClC(Cl)Cl): 2.6 ns

c1ccc2c(c1)Nc1ccccc1B2c1c2ccccc2cc2ccccc12
fluorescence lifetime (in ClCCl): 16.8 ns

CC1(C)C(/C=C/C2=C(c3ccc(C(=O)O)cc3)C(=C/C=C3/N(CCCCS(=O)(=O)[O-])c4ccc5ccccc5c4C3(C)C)/CCC2)=[N+](CCCCS(=O)(=O)[O-])c2ccc3ccccc3c21
fluorescence lifetime (in CC(C)=O): 0.84 ns
fluorescence lifetime (in CCO): 0.69 ns
fluorescence lifetime (in CO): 0.61 ns
fluorescence lifetime (in CS(C)=O): 0.98 ns
fluorescence lifetime (in ClC(Cl)Cl): 1.62 ns
fluorescence lifetime (in ClCCl): 1.34 ns
fluorescence lifetime (in O): 0.2 ns

O=C1c2ccccc2-c2c(-c3ccccc3)c(-c3ccccc3)c(-c3ccccc3)c3cccc1c23
fluorescence lifetime (in CC#N): 0.6 ns
fluorescence lifetime (in CO): 9.2 ns

N#Cc1c(-n2c3ccc(I)cc3c3cc(I)ccc32)c(-n2c3ccc(I)cc3c3cc(I)ccc32)c(C#N)c(-n2c3ccc(I)cc3c3cc(I)ccc32)c1-n1c2ccc(I)cc2c2cc(I)ccc21
fluorescence lifetime (in Cc1ccccc1): 0.1 ns

CCCCCCn1c2cc(/C=C(\C#N)c3cccs3)ccc2c2ccc(/C=C(\C#N)c3cccs3)cc21
fluorescence lifetime (in ClC(Cl)Cl): 0.56 ns

COc1cccc(-[c+]2c3ccccc3oc3ccccc32)c1
fluorescence lifetime (in CC#N): 0.028 ns

O=[N+]([O-])c1ccc(/C2=C3N=C(C(c4ccccc4)=C/3c3ccccc3)/C(c3ccc([N+](=O)[O-])cc3)=c3\[nH]/c(c(-c4ccccc4)c3-c3ccccc3)=C(/c3ccc([N+](=O)[O-])cc3)C3=N/C(=C(/c4ccc([N+](=O)[O-])cc4)c4[nH]c2c(-c2ccccc2)c4-c2ccccc2)C(c2ccccc2)=C3c2ccccc2)cc1
fluorescence lifetime (in ClCCl): 0.395 ns

Cc1cc(-c2ccc(C(C)(C)C)cc2)cc(C)[o+]1
fluorescence lifetime (in CC#N): 8 ns
fluorescence lifetime (in ClCCl): 2.1 ns

From the Deep4Chem optical property database
